In patent publication US9439415B2, “Method for reducing damage by harmful organisms in corn cultivation” (priority 2012, dated 2016):

Key:
[1] = test system: Diabrotica virgifera virgifera and Agriotes lineatus; assay: Field furrow application test, lodge rate of corn due to damage by Diabrotica virgifera virgifera and Agriotes lineatus (Examples 4-8, 10, 11); type: in vivo; settings: 165 days after application, versus non-treatment section
Description: A chemical fertilizer (N:P:K=15:15:15) is applied to the soil surface of a cultivated land at 300 kg/ha, and the cultivated land is then plowed.
7 days after fertilization, for suppressing generation of weeds, the soil surface of the whole cultivated land is spray-treated with a mixed liquid containing thiencarbazone-methyl and isoxaflutole, each of which being a herbicide, and cyprosulfamide which is a safener at 150 L/ha so that the application amounts of thiencarbazone-methyl, isoxaflutole and cyprosulfamide are 9.2 g/ha, 23 g/ha and 15 g/ha, respectively. […]
17 days after application of clothianidin and tefluthrin, the number of plants of corn germinated is investigated, with central two rows of four rows of seeded furrows as an investigation section, for the treatment section and the non-treatment section. 165 days after application of clothianidin and tefluthrin, the number of plants of corn lodged due to damage by Diabrotica virgifera virgifera and Agriotes lineatus in the furrows of the treatment section and the non-treatment section, for which the number of plants of corn germinated is investigated, is investigated, a lodge rate is calculated in accordance with the following equation, and then an average lodge rate for the four investigation sections is determined. […]

Agriotes spp. = assay: Field furrow spray test, mortality of corn plants from damage by Agriotes spp. (Example 9); type: in vivo; settings: 50 g/ha, furrow spray 100 L/ha, 34 days after treatment, average of four sections, non-treatment section 16.35
Procedure: A land was ditched at intervals of 80 cm, a predetermined amount of a water-diluted liquid of an esfenvalerate emulsifiable concentrate (using 25 g/L of an EC preparation, trade name: Sumialpha 2.5 EC, manufactured by Philagro) or a water-diluted liquid of a lambda-cyhalothrin SC (using 100 g/L of a SC preparation, trade name: KAPATE ZEON, manufactured by SYNGENTA) was prepared so that the applied amount of an effective component was the amount described in Table 4, and the furrow was spray-treated with the liquid at a spray amount of 100 L/ha. Then, the furrow was seeded with corn (Zea Mays, variety name: Kubrik), and a soil on the side of the furrow was gathered together to close the furrow. A seeding density of corn was 87500 seeds/ha. They were defined as example sections 16 and 17.
For comparison, a non-treatment section, which was seeded with corn in the same manner as in the example sections except that a treatment with a chemical was not performed, was provided. […]
34 days after the treatment with a chemical, the number of plants of corn grown in each of the example sections 16 and 17 and the non-treatment section were investigated, a mortality of plants of corn died because of the damage by Agriotes spp. was calculated in accordance with the following equation, and then an average mortality of the four investigation sections was determined. […]

Row | SMILES | Lodge rate (%) ([1]; Example 11: water-diluted lambda-cyhalothrin SC in furrow, 100 g/ha) | Average mortality (%) (Agriotes spp.) | Lodge rate (%) ([1]; Example 10: water-diluted Sumialpha 2.5 EC in furrow, esfenvalerate 100 g/ha)
1 | CC1(C)[C@H](C(=O)O[C@H](C#N)c2cccc(Oc3ccccc3)c2)[C@@H]1/C=C(\Cl)C(F)(F)F (racemic) [Lambda-cyhalothrin] | low lodge rate as compared to the non-treatment section | 3.35% | 
2 | CC(C)[C@H](C(=O)O[C@H](C#N)c1cccc(Oc2ccccc2)c1)c1ccc(Cl)cc1 [Esfenvalerate] |  | 4.85% | low lodge rate as compared to the non-treatment section
